Experimental data as given in USRE39591E1, “6-O-substituted ketolides having antibacterial activity” (Abbott Laboratories, priority 1996, dated 2007).

Test system: up to 32 different microorganisms
Test: in vitro antibacterial activity (MIC), agar dilution on Brain Heart Infusion (BHI) agar with Steers replicator
Type: cell-based
Conditions: unit assumed
How it was run: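 Agar dilution, 12 plates/compound; inoc 1:100 (1:10 Micrococcus, Streptococcus); 35°-37° C, 20–24 h. Erythromycin A reference plate plus drug-free growth controls at start and end. Endpoint = no growth/slight haze/sparse colonies.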

Structure (SMILES)	MIC (organism code AA) [µg/mL]	MIC (organism code BB) [µg/mL]	MIC (organism code CC) [µg/mL]	MIC (organism code DD) [µg/mL]	MIC (organism code EE) [µg/mL]	MIC (organism code FF) [µg/mL]	MIC (organism code GG) [µg/mL]	MIC (organism code HH) [µg/mL]	MIC (organism code II) [µg/mL]	MIC (organism code JJ) [µg/mL]	MIC (organism code KK) [µg/mL]	MIC (organism code LL) [µg/mL]	MIC (organism code MM) [µg/mL]	MIC (organism code NN) [µg/mL]	MIC (organism code OO) [µg/mL]	MIC (organism code PP) [µg/mL]	MIC (organism code QQ) [µg/mL]	MIC (organism code RR) [µg/mL]	MIC (organism code SS) [µg/mL]	MIC (organism code TT) [µg/mL]	also measured
CCC1OC(=O)C(C)C(=O)C(C)C(OC2OC(C)CC(N(C)C)C2O)C(C)(OCC2CC2c2cnc3ccccc3c2)CC(C)C(=O)C(C)C2NC(=O)OC12C (stereo not drawn) [Example 243, Compound of Formula (IX): L is CO, T is NH, R is —CH2(2-(3-quinolyl)cyclopropyl)]	0.05	0.05	> 100	0.05	0.1	0.05	> 100	0.1	0.02	0.02	0.02	0.02	6.2	0.1	0.02	0.02	50	0.2	50	> 100	MIC (organism code UU): 0.39 µg/mL; MIC (organism code VV): 0.05 µg/mL; MIC (organism code WW): 4 µg/mL; MIC (organism code XX): 0.03 µg/mL; MIC (organism code YY): 0.03 µg/mL; MIC (organism code ZZ): 128 µg/mL; MIC (organism code ZZA): 0.25 µg/mL
CCC(=O)OC1C(OC2C(C)C(=O)C(C)C(=O)OC(CC)C3(C)OC(=O)NC3C(C)C(=O)C(C)CC2(C)OCC=Cc2cnc3ccccc3c2)OC(C)CC1N(C)C (stereo not drawn) [Example 244, Compound of Formula (III): R^c is propanoyl, L is CO, T is NH, R is —CH2CH═CH(3-quinolyl)]	0.1	0.2	> 100	0.2	0.2	0.1	> 100	0.2	0.05	0.01	≤ 0.005	0.02	1.56	0.2	0.02	0.2	50	0.1	25	> 100	MIC (organism code UU): 0.78 µg/mL; MIC (organism code VV): 0.02 µg/mL; MIC (organism code WW): 2 µg/mL; MIC (organism code XX): 0.03 µg/mL; MIC (organism code YY): 0.03 µg/mL; MIC (organism code ZZ): 64 µg/mL; MIC (organism code ZZA): 0.5 µg/mL
C#CCOC1(C)CC(C)C(=O)C(C)C2NC(=O)OC2(C)C(CC)OC(=O)C(C)C(=O)C(C)C1OC1OC(C)CC(N(C)C)C1O (stereo not drawn) [Example 246, Compound of Formula (IX): L is CO, T is NH, R is —CH2CH≡C—H]	0.78	0.78	> 100	0.78	0.78	0.78	> 100	0.78	0.2	0.1	0.2	0.2	> 100	0.39	0.2	0.78	> 100	0.78	> 100	> 100	MIC (organism code UU): 50 µg/mL; MIC (organism code VV): 0.78 µg/mL; MIC (organism code WW): 16 µg/mL; MIC (organism code XX): 0.25 µg/mL; MIC (organism code YY): 0.125 µg/mL; MIC (organism code ZZ): > 128 µg/mL; MIC (organism code ZZA): 0.5 µg/mL
CCC1OC(=O)C(C)C(=O)C(C)C(OC2OC(C)CC(N(C)C)C2O)C(C)(OCC#Cc2cnc3ccccc3c2)CC(C)C(=O)C(C)C2NC(=O)OC12C (stereo not drawn) [Example 247, Compound of Formula (IX): L is CO, T is NH, R is —CH2—C≡C-(3-quinolyl)]	0.05	0.05	> 100	0.05	0.05	0.05	> 100	0.05	0.02	≤ 0.005	0.01	0.01	0.39	0.1	0.01	0.02	25	0.2	25	> 100	MIC (organism code UU): 0.39 µg/mL; MIC (organism code VV): 0.01 µg/mL; MIC (organism code WW): 1 µg/mL; MIC (organism code XX): ≤ 0.004 µg/mL; MIC (organism code YY): ≤ 0.004 µg/mL; MIC (organism code ZZ): 4 µg/mL; MIC (organism code ZZA): 0.25 µg/mL
CC[C@H]1OC(=O)[C@H](C)C(=O)[C@H](C)[C@@H](O[C@@H]2O[C@H](C)C[C@H](N(C)C)[C@H]2O)[C@@](C)(OCC#Cc2cnc3ccc([N+](=O)[O-])cc3c2)C[C@@H](C)C(=O)[C@H](C)[C@H]2NC(=O)O[C@@]21C [Example 248, Compound of Formula (IX): L is CO, T is NH, R is —CH2—C≡C-(6-nitro-3-quinolyl)]	0.05	0.05	> 100	0.05	0.05	0.02	> 100	0.05	0.02	0.02	≤ 0.005	≤ 0.005	0.39	0.1	0.02	0.1	50	0.39	50	> 100	MIC (organism code UU): 0.39 µg/mL; MIC (organism code VV): 0.02 µg/mL; MIC (organism code WW): 3 µg/mL; MIC (organism code XX): 0.03 µg/mL; MIC (organism code YY): 0.03 µg/mL; MIC (organism code ZZ): 4 µg/mL; MIC (organism code ZZA): 0.25 µg/mL
CC[C@H]1OC(=O)[C@H](C)C(=O)[C@H](C)[C@@H](O[C@@H]2O[C@H](C)C[C@H](N(C)C)[C@H]2O)[C@@](C)(OCC#Cc2ccccc2)C[C@@H](C)C(=O)[C@H](C)[C@H]2NC(=O)O[C@@]21C [Example 249, Compound of Formula (IX): L is CO, T is NH, R is —CH2—C≡C-phenyl]	0.1	0.1	> 100	0.2	0.2	0.1	> 100	0.1	0.05	0.01	0.02	0.02	100	0.1	0.01	0.1	100	0.39	> 100	> 100	MIC (organism code UU): 0.39 µg/mL; MIC (organism code VV): 0.1 µg/mL; MIC (organism code WW): 4 µg/mL; MIC (organism code XX): 0.03 µg/mL; MIC (organism code YY): 0.03 µg/mL; MIC (organism code ZZ): > 128 µg/mL; MIC (organism code ZZA): 0.25 µg/mL
CC[C@H]1OC(=O)[C@H](C)C(=O)[C@H](C)[C@@H](O[C@@H]2O[C@H](C)C[C@H](N(C)C)[C@H]2O)[C@@](C)(OCC#Cc2ccc3ccccc3c2)C[C@@H](C)C(=O)[C@H](C)[C@H]2NC(=O)O[C@@]21C [Example 251, Compound of Formula (IX): L is CO, T is NH, R is —CH2—C≡C-(2-naphthyl)]	0.1	0.1	> 100	0.1	0.1	0.1	> 100	0.1	0.1	0.02	0.05	0.05	6.2	0.2	0.02	0.2	> 100	1.56	> 100	> 100	MIC (organism code UU): 0.2 µg/mL; MIC (organism code VV): 0.05 µg/mL; MIC (organism code WW): 16 µg/mL; MIC (organism code XX): 0.125 µg/mL; MIC (organism code YY): 0.25 µg/mL; MIC (organism code ZZ): > 128 µg/mL; MIC (organism code ZZA): 1 µg/mL
CC[C@H]1OC(=O)[C@H](C)C(=O)[C@H](C)[C@@H](O[C@@H]2O[C@H](C)C[C@H](N(C)C)[C@H]2O)[C@@](C)(OCC#Cc2ccc3cc(OC)ccc3c2)C[C@@H](C)C(=O)[C@H](C)[C@H]2NC(=O)O[C@@]21C [Example 252, Compound of Formula (IX): L is CO, T is NH, R is —CH2—C≡C-(6-methoxy-2-naphthyl)]	0.1	0.1	> 100	0.1	0.1	0.1	> 100	0.1	0.05	0.002	0.02	0.05	3.1	0.1	0.02	0.2	> 100	0.78	> 100	> 100	MIC (organism code UU): 0.2 µg/mL; MIC (organism code VV): 0.05 µg/mL; MIC (organism code WW): 2 µg/mL; MIC (organism code XX): 0.03 µg/mL; MIC (organism code YY): 0.03 µg/mL; MIC (organism code ZZ): 4 µg/mL; MIC (organism code ZZA): 0.25 µg/mL
CC[C@H]1OC(=O)[C@H](C)C(=O)[C@H](C)[C@@H](O[C@@H]2O[C@H](C)C[C@H](N(C)C)[C@H]2O)[C@@](C)(OCC#Cc2ccc3cc(Cl)ccc3c2)C[C@@H](C)C(=O)[C@H](C)[C@H]2NC(=O)O[C@@]21C [Example 253, Compound of Formula (IX): L is CO, T is NH, R is —CH2—C≡C-(6-chloro-2-naphthyl)]	0.05	0.05	> 100	0.05	0.1	0.05	> 100	0.05	0.05	0.02	0.02	0.01	0.78	0.05	0.01	0.1	50	0.3	50	> 100	MIC (organism code UU): 0.2 µg/mL; MIC (organism code VV): 0.02 µg/mL; MIC (organism code WW): 2 µg/mL; MIC (organism code XX): 0.015 µg/mL; MIC (organism code YY): 0.03 µg/mL; MIC (organism code ZZ): 1 µg/mL; MIC (organism code ZZA): 0.25 µg/mL
